This experiment has as its target T1, Tyrosine-protein phosphatase non-receptor type 1 [1-322] (Human, UniProt P18031).
T1 construct: 1-322
T1 sequence (P18031 whole entry): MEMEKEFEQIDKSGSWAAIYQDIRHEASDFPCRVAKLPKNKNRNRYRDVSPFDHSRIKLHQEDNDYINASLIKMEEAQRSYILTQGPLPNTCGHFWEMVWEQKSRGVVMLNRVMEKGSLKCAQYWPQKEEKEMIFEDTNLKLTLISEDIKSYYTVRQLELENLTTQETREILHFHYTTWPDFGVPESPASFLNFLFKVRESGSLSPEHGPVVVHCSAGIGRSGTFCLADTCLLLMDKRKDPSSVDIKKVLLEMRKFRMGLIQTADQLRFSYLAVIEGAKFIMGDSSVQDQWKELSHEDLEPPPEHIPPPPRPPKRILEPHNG
The experiment is described as follows: PTP1B Activity Assay. The settings on record: pH 7. The procedure:
The test compounds were introduced into the solutions as stock solutions dissolved in DMSO. After 20−30 s, the amount of PTP1B activity in the assays was assessed by measuring the increase in absorbance at 410 nm as a function of time resulting from the enzyme-mediated conversion of p-NPP to p-nitrophenolate.
One may read the IC50 as the concentration that gives 50% inhibition. A high value points to weaker potency in that assay. As usually defined, the Ki is a measure of affinity in units of concentration, obtained from inhibition or displacement. In the case of `Cc1ccc(-c2ccc(NC(=O)CBr)cc2)cc1N1CC(=O)NS1(=O)=O` [2-Bromo-N-[3'-(1,1-dioxido-4-oxo-1,2,5-thiadiazolidin-2-yl)-4'-methyl[1,1'-biphenyl]-4-yl]-acetamide (5a)], the half-inhibitory concentration (IC50) amounted to 54 µM and affinity was put at a Ki of 27 µM.

Regarding `Cc1ccc(-c2ccccc2)cc1N1CC(=O)NS1(=O)=O` [5-(4-Methyl[1,1'-biphenyl]-3-yl)-1,2,5-thiadiazolidin-3-one 1,1-Dioxide (2b)], the midpoint of inhibition, the IC50, lay at 77 µM and the Ki came to 38.5 µM.

`CC(=O)Nc1ccc(-c2ccc(C)c(N3CC(=O)NS3(=O)=O)c2)cc1` [N-[3'-(1,1-Dioxido-4-oxo-1,2,5-thiadiazolidin-2-yl)-4'-methyl[1,1'-biphenyl]-4-yl]acetamide (5b)] returned a 50% inhibitory concentration (IC50) of 64 µM and a Ki of 32 µM.

These data come from BindingDB's records for doi:10.1021/acs.biochem.7b00151 (University of Missouri, 2017).
